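1) Cells in 96-well plates. 2) Compound, 48 h, 5 concentrations. 3) Linear interpolation between surrounding doses. 4) Unreached endpoint = highest concentration. TGI: concentration producing complete growth inhibition.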
Key:
Assay in all cases: inhibition of tumour cell growth, NCI panel, 48 h
[1] = test system: SK-OV-3 ovarian
[2] = test system: NCI-H23 lung
[3] = test system: SK-MEL-5 melanoma
[4] = test system: HCT-15 colon
[5] = test system: SN12C renal
[6] = test system: SR leukemia
[7] = test system: SNB-19 CNS
[8] = test system: IGROV1 ovarian
[9] = test system: DU-145 prostate
[10] = test system: NCI/ADR-RES ovarian
[11] = test system: HOP-62 NSCLC
[12] = test system: M14 melanoma
[13] = test system: MDA-MB-231 breast
[14] = test system: PC-3 prostate
[15] = test system: HS 578T breast
[16] = test system: BT-549 breast
[17] = test system: OVCAR-8 ovarian
[18] = test system: SNB-75 CNS
[19] = test system: NCI-H226 lung
[20] = test system: RXF 393 renal
[21] = test system: CCRF-CEM leukemia
[22] = test system: RPMI-8226 leukemia
[23] = test system: COLO 205 colon
[24] = test system: MALME-3M melanoma
[25] = test system: KM12 colon
[26] = test system: A498 renal
[27] = test system: SK-MEL-28 melanoma
[28] = test system: SK-MEL-2 melanoma
[29] = test system: T-47D breast
[30] = test system: HCC-2998 colon
[31] = test system: OVCAR-5 ovarian
[32] = test system: NCI-H522 lung
[33] = test system: NCI-H460 lung
[34] = test system: UACC-62 melanoma
[35] = test system: HT29 colon
[36] = test system: SF-295 CNS
[37] = test system: MCF7 breast
[38] = test system: MOLT-4 leukemia
[39] = test system: HOP-92 NSCLC
[40] = test system: U251 CNS
[41] = test system: K-562 leukemia
[42] = test system: MDA-MB-435
[43] = test system: OVCAR-3 ovarian
[44] = test system: CAKI-1 renal
[45] = test system: MDA-N
[46] = test system: UO-31 renal
[47] = test system: EKVX NSCLC
[48] = test system: UACC-257 melanoma
[49] = test system: LOX IMVI melanoma
[50] = test system: HCT-116 colon
[51] = test system: ACHN renal
[52] = test system: A549 NSCLC
[53] = test system: HL-60(TB) leukemia
[54] = test system: TK-10 renal
[55] = test system: 786-0 renal
[56] = test system: OVCAR-4 ovarian
[57] = test system: SF-268 CNS
[58] = test system: SW-620 colon
[59] = test system: SF-539 CNS

`CC(=O)OC1CC[C@@]2(C)C(=CC[C@@H]3[C@@H]2CC[C@]2(C)Nc4nn(S(C)(=O)=O)cc4C[C@@H]32)C1` (stereo not given in full) was tested, and the TGI [1] was over 100 µM, the TGI [2] was over 100 µM and the TGI [3] was 28.4 µM. The TGI [4] was 89.4 µM, the TGI [5] was over 100 µM and the TGI [6] was over 100 µM. It also gave a TGI [7] of over 100 µM, a TGI [8] of over 100 µM and a TGI [9] of over 100 µM. It also gave a TGI [10] of over 100 µM, a TGI [11] of over 100 µM and a TGI [12] of 36.3 µM. The TGI [13] was over 100 µM, the TGI [14] was over 100 µM and the TGI [15] was over 100 µM. It also gave a TGI [16] of 45 µM, a TGI [17] of over 100 µM and a TGI [18] of over 100 µM. The TGI [19] was 92 µM, the TGI [20] was 95.3 µM and the TGI [21] was 38.5 µM. It also gave a TGI [22] of over 100 µM, a TGI [23] of over 100 µM and a TGI [24] of 78.6 µM. It also gave a TGI [25] of 81.8 µM, a TGI [26] of over 100 µM and a TGI [27] of over 100 µM. For the same molecule, the TGI [28] was 58.8 µM, the TGI [29] was 54.5 µM and the TGI [30] was over 100 µM. It also gave a TGI [31] of over 100 µM, a TGI [32] of over 100 µM and a TGI [33] of 72.5 µM. The TGI [34] was 50.2 µM, the TGI [35] was 25.4 µM and the TGI [36] was over 100 µM. The TGI [37] was 40.7 µM, the TGI [38] was 53.9 µM and the TGI [39] was over 100 µM. The TGI [40] was over 100 µM, the TGI [41] was over 100 µM and the TGI [42] was 50.1 µM. It also gave a TGI [43] of 57.8 µM, a TGI [44] of over 100 µM and a TGI [45] of 74.5 µM. The TGI [46] was over 100 µM.

Molecule `OC(c1ccccc1)(c1ccccc1)c1nccc2ccccc12` has a TGI [1] of 70.2 µM, a TGI [2] of 89.5 µM and a TGI [3] of 27 µM. For the same molecule, the TGI [47] was 83.5 µM, the TGI [4] was over 100 µM and the TGI [5] was over 100 µM. The TGI [6] was over 100 µM, the TGI [48] was over 100 µM and the TGI [7] was over 100 µM. It also gave a TGI [8] of over 100 µM, a TGI [9] of over 100 µM and a TGI [10] of over 100 µM. It also gave a TGI [11] of 43.2 µM, a TGI [12] of 49.9 µM and a TGI [13] of over 100 µM. It also gave a TGI [14] of over 100 µM, a TGI [49] of 44.3 µM and a TGI [15] of over 100 µM. For the same molecule, the TGI [16] was 37.2 µM, the TGI [17] was over 100 µM and the TGI [50] was 97 µM. The TGI [51] was over 100 µM, the TGI [52] was over 100 µM and the TGI [21] was 95.5 µM. For the same molecule, the TGI [22] was over 100 µM, the TGI [53] was over 100 µM and the TGI [23] was over 100 µM. The TGI [24] was 68 µM, the TGI [25] was over 100 µM and the TGI [27] was over 100 µM. For the same molecule, the TGI [29] was over 100 µM, the TGI [54] was over 100 µM and the TGI [31] was over 100 µM. It also gave a TGI [32] of 40.8 µM, a TGI [55] of over 100 µM and a TGI [56] of over 100 µM. It also gave a TGI [33] of 43.7 µM, a TGI [34] of over 100 µM and a TGI [35] of over 100 µM. For the same molecule, the TGI [57] was over 100 µM, the TGI [36] was 36.2 µM and the TGI [37] was over 100 µM. The TGI [38] was 59.4 µM, the TGI [40] was over 100 µM and the TGI [42] was over 100 µM. It also gave a TGI [43] of 52.5 µM, a TGI [44] of over 100 µM and a TGI [45] of over 100 µM. It also gave a TGI [46] of over 100 µM.

For `CN(C)c1ccc(C=Nc2ccc(-c3nc4ccccc4[nH]3)cc2)cc1`, the TGI [1] was over 100 µM, the TGI [2] was over 100 µM and the TGI [3] was over 100 µM. For the same molecule, the TGI [47] was over 100 µM, the TGI [4] was over 100 µM and the TGI [5] was over 100 µM. It also gave a TGI [6] of 65.1 µM, a TGI [48] of over 100 µM and a TGI [7] of over 100 µM. For the same molecule, the TGI [8] was over 100 µM, the TGI [9] was over 100 µM and the TGI [10] was 27.7 µM. It also gave a TGI [11] of over 100 µM, a TGI [12] of over 100 µM and a TGI [13] of over 100 µM. It also gave a TGI [14] of over 100 µM, a TGI [49] of over 100 µM and a TGI [15] of over 100 µM. For the same molecule, the TGI [16] was 88.8 µM, the TGI [17] was over 100 µM and the TGI [50] was over 100 µM. For the same molecule, the TGI [51] was over 100 µM, the TGI [18] was over 100 µM and the TGI [58] was over 100 µM. It also gave a TGI [19] of over 100 µM, a TGI [52] of over 100 µM and a TGI [20] of 80 µM. The TGI [21] was over 100 µM, the TGI [22] was over 100 µM and the TGI [53] was 53.3 µM. The TGI [23] was over 100 µM, the TGI [24] was over 100 µM and the TGI [25] was over 100 µM. For the same molecule, the TGI [26] was over 100 µM, the TGI [27] was over 100 µM and the TGI [28] was over 100 µM. For the same molecule, the TGI [29] was over 100 µM, the TGI [54] was over 100 µM and the TGI [31] was over 100 µM. For the same molecule, the TGI [32] was over 100 µM, the TGI [55] was over 100 µM and the TGI [56] was over 100 µM. It also gave a TGI [59] of over 100 µM, a TGI [33] of over 100 µM and a TGI [35] of over 100 µM. For the same molecule, the TGI [57] was over 100 µM, the TGI [36] was over 100 µM and the TGI [37] was over 100 µM. For the same molecule, the TGI [38] was over 100 µM, the TGI [39] was over 100 µM and the TGI [40] was over 100 µM. It also gave a TGI [41] of over 100 µM, a TGI [42] of over 100 µM and a TGI [43] of over 100 µM. For the same molecule, the TGI [44] was over 100 µM, the TGI [45] was over 100 µM and the TGI [46] was over 100 µM.

Work on `Nc1ccc2c(O)cc(=O)[nH]c2n1` yielded a TGI [1] of over 100 µM, a TGI [2] of over 100 µM and a TGI [3] of over 100 µM. The TGI [47] was over 100 µM, the TGI [4] was over 100 µM and the TGI [5] was over 100 µM. The TGI [6] was over 100 µM, the TGI [48] was over 100 µM and the TGI [7] was over 100 µM. It also gave a TGI [8] of over 100 µM, a TGI [9] of over 100 µM and a TGI [10] of over 100 µM. It also gave a TGI [12] of over 100 µM, a TGI [13] of over 100 µM and a TGI [14] of over 100 µM. It also gave a TGI [15] of over 100 µM, a TGI [16] of over 100 µM and a TGI [17] of over 100 µM. For the same molecule, the TGI [50] was over 100 µM, the TGI [51] was over 100 µM and the TGI [18] was over 100 µM. The TGI [58] was over 100 µM, the TGI [19] was over 100 µM and the TGI [52] was over 100 µM. The TGI [20] was over 100 µM, the TGI [22] was over 100 µM and the TGI [53] was over 100 µM. For the same molecule, the TGI [23] was over 100 µM, the TGI [24] was over 100 µM and the TGI [25] was over 100 µM. It also gave a TGI [27] of over 100 µM, a TGI [28] of over 100 µM and a TGI [29] of over 100 µM. The TGI [54] was over 100 µM, the TGI [31] was over 100 µM and the TGI [32] was over 100 µM. The TGI [55] was over 100 µM, the TGI [56] was over 100 µM and the TGI [59] was over 100 µM. It also gave a TGI [33] of over 100 µM, a TGI [34] of over 100 µM and a TGI [35] of over 100 µM. It also gave a TGI [57] of over 100 µM, a TGI [36] of over 100 µM and a TGI [37] of over 100 µM. The TGI [38] was over 100 µM, the TGI [39] was over 100 µM and the TGI [40] was over 100 µM. The TGI [41] was over 100 µM, the TGI [42] was over 100 µM and the TGI [44] was over 100 µM. The TGI [45] was over 100 µM and the TGI [46] was over 100 µM.

Source: PubChem BioAssay (NCI)
